Results as given in patent US20250032530A1, “USE OF AURANOFIN AS AN INHIBITOR OF ATYPICAL PROTEIN KINASE C FOR TREATMENT OF NEURODEGENERATIVE DISORDERS” (UNIVERSITY OF SOUTH FLORIDA, priority 2021, published 2025).
pIC50: −log10 of the molar value. Like-named read-outs stand apart in the source and are kept apart here.

What was measured:
[1] = target: T1, 70 kDa PKC-λ/ι (Mus musculus, UniProt Q62074); test: 70 kDa PKC-λ/ι activity (p-thr-555/560-aPKC, Western) in brain and liver of normal mice given ICAP nasally or IV; type: in vivo
T1 construct: from tissue; host or cells: mouse brain and liver
T1 sequence (Q62074 1-595): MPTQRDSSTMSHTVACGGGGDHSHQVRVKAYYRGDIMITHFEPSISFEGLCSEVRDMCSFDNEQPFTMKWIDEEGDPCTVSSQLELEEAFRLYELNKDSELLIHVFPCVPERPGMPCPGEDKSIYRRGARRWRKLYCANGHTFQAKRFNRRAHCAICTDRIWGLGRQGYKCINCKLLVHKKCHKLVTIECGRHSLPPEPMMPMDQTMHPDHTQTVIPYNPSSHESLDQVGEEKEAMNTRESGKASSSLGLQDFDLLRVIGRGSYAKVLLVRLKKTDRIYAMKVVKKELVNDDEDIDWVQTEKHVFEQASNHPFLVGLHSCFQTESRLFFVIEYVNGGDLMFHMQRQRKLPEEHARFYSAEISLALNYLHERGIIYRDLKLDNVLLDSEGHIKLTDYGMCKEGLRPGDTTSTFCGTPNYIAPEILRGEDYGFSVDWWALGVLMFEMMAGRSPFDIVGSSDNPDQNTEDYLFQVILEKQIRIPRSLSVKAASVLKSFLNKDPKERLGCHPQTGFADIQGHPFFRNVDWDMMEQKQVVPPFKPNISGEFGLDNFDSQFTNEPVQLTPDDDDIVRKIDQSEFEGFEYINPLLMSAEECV

[2] = tested on: Aβ-peptides and Aβ-plaque; test: AD pathology (Aβ-peptides by ELISA, Aβ-plaque load) in transgenic APP/PS1 AD mice given ICAP; type: in vivo, mouse
[3] = target: T2, PKC-λ/ι (Mus musculus, UniProt Q62074); conditions: cited from earlier work
T2 sequence (Q62074 1-595): T1 sequence (Q62074 1-595)

[4] = tested on: aPKC; conditions: cited from earlier work
[5] = tested on: Tg APP/PS1 AD mice; test: Memory tests (Novel Object Recognition, RAWM) in transgenic APP/PS1 AD mice given oral ICAP; type: in vivo, mouse; conditions: PO 100 mg/kg/day × 3 months
Protocol: Radial Arm Water Maze (RAWM) assesses learning and spatial memory and requires hippocampal and frontal cortical areas. The maze consisted of a circular pool filled with opaque water, with 6 arms radiating from a central area. On each training day, mice were released to swim and find a submerged escape platform at the end of a goal arm, utilizing extra-maze cues to form a spatial representation. On each day, there were 4 consecutive acquisition trials of no more than 1 minute each. […] If the animal made an error, it was returned to the start arm in a restart procedure. After the last acquisition trial, the animal was dried and returned to its home cage for 30 min and then given a single retention trial from the same start arm to measure short-term spatial memory.

[6] = target: T3, 50 kDa PKMζ (Mus musculus, UniProt Q02956); test: 50 kDa PKMζ activity in brain of normal mice given nasal ICAP; type: in vivo; conditions: 100 mg/kg/day, 3 weeks
T3 construct: from tissue; host or cells: mouse brain
T3 sequence (Q02956 1-409 isoform Q02956-2): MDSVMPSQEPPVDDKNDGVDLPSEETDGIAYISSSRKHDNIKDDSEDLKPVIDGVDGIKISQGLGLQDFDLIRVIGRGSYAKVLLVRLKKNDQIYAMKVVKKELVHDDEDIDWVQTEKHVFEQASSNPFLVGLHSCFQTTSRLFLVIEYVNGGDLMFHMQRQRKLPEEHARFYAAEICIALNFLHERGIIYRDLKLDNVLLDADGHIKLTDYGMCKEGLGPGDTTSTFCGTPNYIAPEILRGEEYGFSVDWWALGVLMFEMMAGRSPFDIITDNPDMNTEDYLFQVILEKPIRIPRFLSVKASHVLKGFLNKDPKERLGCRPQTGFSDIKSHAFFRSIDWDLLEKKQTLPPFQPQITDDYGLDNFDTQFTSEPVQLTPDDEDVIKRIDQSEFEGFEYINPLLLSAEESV

[7] = tested on: BACE1 and CKs (TNF-α, IL-1β, IL-6); test: BACE1 and proinflammatory cytokine levels in APP/PS1 AD mice given oral ICAP; type: in vivo, mouse
Excerpt: Values are Mean±SEM of results in 10 mice.
As alluded to, resting PKC-λ/ι activity was increased by approx. 40% in brains of Tg APP/PS1 AD mice, relative to normal WT mice (FIG. 17).

[8] = tested on: BACE1; test: BACE1 protein and mRNA levels in brain and liver of normal mice given ICAP nasally or IV; type: in vivo, mouse
Protocol: Values are mean±SEM of 6 mice/group. P values, (ANOVA).
Values are mean±SEM of 6 mice/group.
As described, samples from mouse brains that were flash-frozen in liquid N2 and stored at −80° C. were homogenized in buffer containing 0.25M sucrose, 20 mM Tris/HCl (pH, 7.5), 2 mM EGTA, 2 mM EDTA, 1 mM phenyl-methyl-sulfonyl-fluoride, 20 μg/ml leupeptin, 10 μg/ml aprotinin, 2 mM Na4P2O7, 2 mM Na3VO4, 2 mM NaF, and 1 μM microcystin, and then supplemented with 1% TritonX-100, 0.6% Nonidet and 150 mM NaCl.
(§1) As described, western analyses were conducted with rabbit antisera, using: anti-aPKC [recognizes a C-terminal sequence in all aPKCs (Santa Cruz Biotechnologies, Santa Cruz, CA, USA)]; anti-phospho-threonine (thr)-560/555-PKC-ζ/λ/ι [recognizes a phosphopeptide sequence present in all aPKCs and indicates activation (Invitrogen, Carlsbad, CA, USA)]; anti-phospho-serine (ser)-473-Akt [recognizes a phosphopeptide sequence at 60 kDa present in all Akt's-1/2/3 and indicates activation (Cell Signaling Technologies, Danvers, MA, USA)]; anti-4 kDa-AP1-40/42 (Cell Signaling Technologies, Danvers, MA, USA); anti-mouse-70 kDa-BACE1 and anti-human-70 kDa-BACE1 (ThermoFisher); and anti-phospho-threonine (thr)-231-tau (Gene Tex, Irvine, CA, USA). Samples from all experimental groups within each study were compared on the same blots and routinely checked with loading controls. All comparisons in histograms were made relative to the mean value of the basal control group, i.e., wild-type mice consuming standard low-fat mouse chow, untreated with insulin or aPKC inhibitors, and having normal levels of aPKCs and other cellular proteins.

[9] = tested on: aPKC, Akt2, AMP-activated kinase (AMPK), FoxO1; conditions: isolated human hepatocytes; cited from earlier work
[10] = IV and PO, 200 mg/kg body weight; cited from earlier work
[11] = Distribution and passage of the blood brain barrier; type: in vivo; conditions: published and prelim PK/PD studies
Protocol: aPKC Inhibitors. We identified by HTS compounds that target the substrate-binding site of aPKCs and potently (IC50s10-30 nM) inhibit recombinant PIP3-dependent aPKCs, but not DAG-dependent PKCs. Three compounds have been studied in detail: (a) 1H-imidazole-4-carboxamide, 5-amino-1-[2,3-dihydroxy-4-[(phosphono-oxy)methyl]cyclopentyl-[1R-(1a,2b,3b,4a)] […] Thus, these agents can reduce brain aPKC activity, indirectly at lower doses by inhibiting liver aPKC and correcting hyperinsulinemia in insulin-resistant states, and, at higher doses, by acting directly on brain PKC-λ/ι.

[12] = tested on: BACE1; test: BACE1 levels in LA1-5s neuronal cells treated with insulin; type: cell-based, human; conditions: 200 nM insulin, 24 hours; increasing concentrations of ICAPP
Protocol: Values of BACE1 are Mean±SEM of 4 values. Asterisks indicate P<0.05 for comparison of designated group versus the untreated control group (ANOVA).
(§2) LA1-5s neuronal cells were originally obtained from non-catecholamine-producing neuroblastoma of a person and are commercially available from the European Collection of Authenticated Cell Cultures. Incubation conditions were as described.
as §1

[13] = tested on: non-sensitive cancer cells; conditions: read-out: cytotoxicity activity (IC50); cited from earlier work
[14] = tested on: PKCι and PKCζ; conditions: cited from earlier work
[15] = tested on: sensitive cancer cells; conditions: read-out: cytotoxicity activity (IC50); cited from earlier work
[16] = tested on: NFκB; test: Insulin-induced NFκB activity in LA1-5s neuronal cells; type: cell-based, human; conditions: 200 nM insulin, 24 hours; 1 μM ACPD, increasing concentrations of auranofin
Excerpt: (§3) Cell lysates were subjected to Western analyses for phosphorylated/activated forms of aPKC, NFκB and Akt. Representative blots of indicated proteins are shown in upper bands. […] Bargrams show Mean±SEM of 3-4 determinations. Asterisks indicate P<0.05; comparison of designated group versus the uninhibited, insulin-treated group (ANOVA).
as §2
as §1, with “Samples from all experimental groups within each study were compared on the same blots and routinely checked with loading controls. All comparisons in histograms were made relative to the mean value of the basal control group, i.e., wild-type mice consuming standard low-fat mouse chow, untreated with insulin or aPKC inhibitors, and having normal levels of aPKCs and other cellular proteins.” left out

[17] = tested on: CA-125; conditions: oral administration, 10 patients; cited from earlier work
[18] = PO; cited from earlier work
[19] = tested on: Akt; test: Insulin-induced Akt activation in LA1-5s neuronal cells; type: cell-based, human; conditions: 200 nM insulin, 24 hours
Excerpt: as §3, §2
as §1, with “Samples from all experimental groups within each study were compared on the same blots and routinely checked with loading controls. All comparisons in histograms were made relative to the mean value of the basal control group, i.e., wild-type mice consuming standard low-fat mouse chow, untreated with insulin or aPKC inhibitors, and having normal levels of aPKCs and other cellular proteins.” left out

[20] = mouse, in vivo, po, 100 mg/kg/day
[21] = PO 100 mg/kg/day × 3 months, brain
[22] = nasal, 100 mg/kg/day, 3 weeks, brain

## NC(=O)c1ncn(C2CC(CO)C(O)C2O)c1N (centres unmarked) [ICAP]
[1]; IV, 100 mg/kg/day × 7 days, normal mice, brain
  decrease of brain PKC-λ/ι (aPKC) activity: 50-60%
[1]; mouse brain
  inhibition of PKC-λ versus PKMζ: inhibits PKC-λ, but not PKMζ
[1]; nasal, 100 mg/kg/day, 3 weeks, normal mice, brain
  inhibition of brain 70 kDa PKC-λ/ι (aPKC) activity: 70-80%
[2]; PO 100 mg/kg/day × 3 months, APP/PS1 AD mice
  reduction of Aβ-plaque load: approx. 70%
[2]; [20]
  Aβ40 levels: reduced
  Aβ42 levels: reduced
[2]; nasal ICAP, APP/PS1 AD mice, not shown
  AD pathological and functional aberrations: corrected AD pathological and functional aberrations
[3]
  effect on LTP and LTM: lack of effect
[4]; at higher doses
  inhibition of brain aPKC: inhibit brain aPKC
[4]; given per os (PO), nasally, SC
  effectiveness in brain: effective in brain
[4]; intact mice, employed doses
  aPKC inhibition in liver, muscle, adipose tissue: inhibit aPKC in liver, but not in muscle or adipose tissue
[5]
  memory function, Novel Object Recognition (NOR) test: restored memory functions
[5]; not shown
  memory function, RAWM test: restored memory functions
[6]
  brain 50 kDa PKMζ activity: not altered
[7]; PO 100 mg/kg-bw daily, liver
  liver BACE1 levels: diminished
[7]; [21]
  brain levels of BACE1: diminished
  brain levels of CKs (TNF-α, IL-1β, IL-6): diminished
[8]; IV, 100 mg/kg/day × 7 days, brain
  decrease of brain BACE1 levels: 50-60%
[8]; IV, 100 mg/kg/day × 7 days, liver
  decrease of liver BACE1 levels: approximately 90%
[8]; [22]
  decrease of brain BACE1 mRNA levels: approximately 50%
  decrease of brain BACE1 protein levels: approximately 50%
[9]
  FoxO1 phosphorylation/inactivation: increase FoxO1 phosphorylation/inactivation
  inhibition of aPKC, Akt2, AMPK: inhibit aPKC but not Akt2 or AMP-activated kinase (AMPK)
[10]
  ICAP uptake over 24 hours, liver versus brain: substantially greater in liver than in brain
[11]
  passage of the BBB: clearly passes the BBB and enters the brain
  tissue distribution: preferentially distributes to liver

## CC(=O)OC[C@H]1O[C@@H]([S-])[C@H](OC(C)=O)[C@@H](OC(C)=O)[C@@H]1OC(C)=O.CCP(CC)CC.[Au+] [auranofin, 1-thio-β-D-glucopyranosatotriethylphosphine gold-2,3,4,6-tetraacetate]
[12]
  insulin-induced increase in BACE1 levels: diminished
[13]
  pIC50: < 4.40
[14]
  inhibition of PKCι and PKCζ signaling by targeting the PB1 domain: inhibits PKCι and PKCζ signaling
  insulin activation of aPKC (PB1 site): inhibit insulin activation of aPKC
[15]
  pIC50: ≥ 5.00
[16]
  insulin-induced increase in NFκB activity: diminished
[17]
  levels of CA-125: decreased levels of CA-125 in one patient
[18]
  passage of the BBB: known to cross the BBB
[19]
  insulin-induced Akt activation: not Akt activation
